The source made the active and inactive calls. The rule behind the calls is not given here.

The source of these data is ChEMBL document CHEMBL6177959, “Design, synthesis and evaluation of novel carboline-triazole hybrids as promising antimalarial agents” (Eur J Med Chem, 2025).

The test system of data set [1] is Plasmodium falciparum. Nature of the data set: Antimalarial activity against Plasmodium falciparum W2. The data set is classed as functional, organism-based.
The subject of data set [2] is Plasmodium falciparum. Kind of data set: Antimalarial activity against Plasmodium falciparum 3D7. The data set is classed as functional, organism-based.
In data set [3] the test system is Plasmodium falciparum. Kind of data set: Antimalarial activity against chloroquine-sensitive Plasmodium falciparum 3D7 infected in human erythrocytes assessed as reduction in parasite growth incubated for 72 hrs by SYBR green dye fluorimetric assay. Format: functional, organism-based. Particulars: 3D7, Erythrocyte.
Data set [4] concerns Plasmodium falciparum. Kind of data set: Antimalarial activity against […] infected in human erythrocytes assessed as reduction in parasite growth incubated for 72 hrs by SYBR green dye fluorimetric assay. The note with it: K1, Erythrocyte. Format: functional, organism-based.
Data set [5] is described as follows: Resistance index, ratio of IC50 for antimalarial activity against […] infected in human erythrocytes to IC50 for antimalarial activity against chloroquine-sensitive Plasmodium falciparum 3D7 infected in erythrocytes. The data set is classed as functional.
Data set [6] in a line: Cytotoxicity against human HepG2 cells. The data set is classed as toxicity, cell-based.
Data set [7] is described as follows: Selectivity index, ratio of CC50 for cytotoxicity against human HepG2 cells to IC50 for antimalarial activity against chloroquine-sensitive Plasmodium falciparum 3D7 infected in human erythrocytes assessed as reduction in parasite growth incubated for 72 hrs by SYBR green dye fluorimetric assay. Format: toxicity, cell-based. Particulars: read-out: Ratio CC50/IC50.

In data set [8] the test system is Plasmodium falciparum. Nature of the data set: Antimalarial activity against […] infected in human erythrocytes assessed as inhibition of parasitic growth at 5 uM incubated for 72 hrs by SYBR green dye fluorimetric assay relative to control. The data set is classed as functional, K1, Erythrocyte. Set-up: scale not given: the % may be the effect or the level left.

For data set [9], the system named is Plasmodium falciparum. Kind of data set: Induction of morphological changes in asexual blood stage Plasmodium falciparum assessed as appearance of fragmentation at 1 uM incubated for 24 hrs by Geimsa-staining based light microscopic analysis. Format: functional, organism-based.
In data set [10] the test system is Plasmodium falciparum. Nature of the data set: Induction of morphological changes in asexual blood stage Plasmodium falciparum assessed as appearance of condensed cytoplasm at 1 uM incubated for 24 hrs by Geimsa-staining based light microscopic analysis. The data set is classed as functional, organism-based.
Data set [11] has as its system Plasmodium falciparum. Nature of the data set: Induction of morphological changes in asexual blood stage Plasmodium falciparum assessed as appearance of compact structure at 1 uM incubated for 24 hrs by Geimsa-staining based light microscopic analysis. The data set is classed as functional, organism-based.
In data set [12] the test system is Plasmodium falciparum. Nature of the data set: Induction of morphological changes in asexual blood stage Plasmodium falciparum assessed as lack of prominent periphery in trophozoites at 1 uM incubated for 24 hrs by Geimsa-staining based light microscopic analysis. Format: functional, organism-based.
Data set [13] has as its system Plasmodium falciparum. Nature of the data set: Induction of morphological changes in asexual blood stage Plasmodium falciparum assessed as appearance of healthy rings at 1 uM incubated for 48 to 72 hrs by Geimsa-staining based light microscopic analysis. The note with it: time 48-72 hrs. The data set is classed as functional, organism-based.
In data set [14] the test system is Plasmodium falciparum. Kind of data set: Induction of morphological changes in asexual blood stage Plasmodium falciparum assessed as appearance of schizonts at 1 uM incubated for 48 to 72 hrs by Geimsa-staining based light microscopic analysis. Particulars: time 48-72 hrs. The data set is classed as functional, organism-based.
A further data set concerns Plasmodium berghei. Nature of the data set: Antimalarial activity against GFP-luciferase expressing liver stage Plasmodium berghei sporozoites infected in human HepG2 cells assessed as inhibition of parasitic growth by luminescence based analysis. Format: functional, organism-based.
For data set [15], the system named is Plasmodium yoelii. Nature of the data set: Antimalarial activity against Plasmodium yoelii N67 infected in female Swiss mouse model assessed as reduction in parasitic growth at 100 mg/kg, po administered for 3 days and measured on day 28 by Giemsa staining based analysis. Format: functional, organism-based. The note with it: time 28.0 day.
Data set [16] relates to Plasmodium yoelii. Nature of the data set: Antimalarial activity against Plasmodium yoelii N67 infected in female Swiss mouse model assessed as inhibition of parasitic growth at 100 mg/kg, po administered for 4 days and measured on day 28 by Giemsa staining based analysis. Format: functional, organism-based. Particulars: time 4.0 day.
The test system of data set [17] is Plasmodium yoelii. Kind of data set: Antimalarial activity against Plasmodium yoelii N67 infected in female Swiss mouse model assessed as inhibition of parasitic growth at 100 mg/kg, po measured on day 7 relative to control. The data set is classed as functional. Set-up: scale not given: the % may be the effect or the level left. The note with it: time 7 day.

Data set [18] relates to Plasmodium yoelii. Kind of data set: Antimalarial activity against Plasmodium yoelii N67 infected in female Swiss mouse model assessed as inhibition of parasitic growth at 100 mg/kg, po measured on day 10 relative to control. The data set is classed as functional. Set-up: scale not given: the % may be the effect or the level left. The note with it: time 10 day.
The subject of data set [19] is Plasmodium yoelii. Kind of data set: Antimalarial activity against Plasmodium yoelii N67 infected in female Swiss mouse model assessed as mean survival time at 100 mg/kg, po measured on day 17 relative to control. The data set is classed as functional. Particulars: N67, 408 h, time 17 day.
For data set [20], the system named is Plasmodium yoelii. Nature of the data set: Antimalarial activity against Plasmodium yoelii N67 infected in female Swiss mouse model assessed as mean survival time at 100 mg/kg, po measured on day 24 relative to control. The data set is classed as functional. The note with it: N67, 576 h, time 24 day.
For data set [21], the system named is Plasmodium yoelii. Kind of data set: Antimalarial activity against Plasmodium yoelii N67 infected in female Swiss mouse model assessed as mean survival time at 100 mg/kg administered orally (reference value: 11 days). The note with it: route po. Format: functional.
The nature of data set [22]: Volume of distribution in male Swiss mouse at 100 mg/kg, po by LC-MS/MS analysis. Particulars: in vivo. The data set is classed as ADME, organism-based.
Data set [23] is described as follows: Half life in male Swiss mouse at 100 mg/kg, po by LC-MS/MS analysis. Format: ADME, organism-based. Particulars: in vivo.
Data set [24] in a line: Cmax in male Swiss mouse at 100 mg/kg, po by LC-MS/MS analysis. The data set is classed as ADME, organism-based. Particulars: in vivo.
Data set [25] in a line: Tmax in male Swiss mouse at 100 mg/kg, po by LC-MS/MS analysis. Format: ADME, organism-based. Particulars: in vivo.
Data set [26] can be described thus: Stability of the compound in simulated physiological fluid at pH 7.4 assessed as compound remaining measured after 120 mins by HPLC analysis relative to control. The note with it: read-out: Stability. Format: physicochemical.
Data set [27] can be described thus: Stability of the compound in simulated intestinal fluid at pH 6.8 assessed as compound remaining measured after 120 mins by HPLC analysis relative to control. The data set is classed as physicochemical. The note with it: read-out: Stability.
Data set [28] can be described thus: Stability of the compound in mouse plasma assessed as compound remaining measured after 120 mins by HPLC analysis relative to control. The note with it: read-out: Stability. Format: ADME, cell-free.
The nature of data set [29]: Clearance in male Swiss mouse at 100 mg/kg, po by LC-MS/MS analysis. The data set is classed as ADME, organism-based. Particulars: in vivo.
The nature of data set [30]: AUC in male Swiss mouse at 100 mg/kg, po by LC-MS/MS analysis. The note with it: in vivo. The data set is classed as ADME, organism-based.
A short description of data set [31]: MRT in male Swiss mouse at 100 mg/kg, po by LC-MS/MS analysis. Particulars: in vivo. The data set is classed as ADME, organism-based.

Consider `COc1cc(-c2nccc3c2[nH]c2ccccc23)cc(OC)c1OC`, for which the IC50 (in general, the concentration that inhibits the measured activity by half) in the data set on Plasmodium falciparum [1] was 0.51 µM.
`Clc1ccc(-n2cc(-c3cncc4ccccc34)nn2)cc1`: half-maximal inhibition in the data set on Plasmodium falciparum [2] (IC50) was put at 36.9 µM.
Turning to `O=C(NCc1cn(-c2cccc(C(F)(F)F)c2)nn1)c1cc2c([nH]c3ccccc32)c(-c2ccc(F)cc2)n1`, the IC50 with Plasmodium falciparum [3] is 0.84 µM; in the data set with Plasmodium falciparum [4] it was 0.4 µM; in the data set on Plasmodium berghei it was 5.88 µM. The “Ratio IC50” value in [5] is 0.48. Moreover, in data set [6], it took 195 µM to reach half-maximal cytotoxicity (CC50). In [7], the selectivity ratio at 72 h was 232. The Activity is on record as 95.63% in the data set on Plasmodium falciparum [8]; “Active; Irreversible Structural Deformations Observed” in the data set on Plasmodium falciparum [9]; “Active; Irreversible Structural Deformations Observed” with Plasmodium falciparum [10]; “Active; Irreversible Structural Deformations Observed” with Plasmodium falciparum [11]; “Active; Irreversible Structural Deformations Observed” in the data set on Plasmodium falciparum [12]; “Moderate_effect” with Plasmodium yoelii [16]. In addition, the Activity in the data set on Plasmodium yoelii [17] is reported as 42.55%; in the data set with Plasmodium yoelii [18], 35.93%. In addition, the result in the data set on Plasmodium falciparum [13] and in the data set on Plasmodium falciparum [14] was inactive. The outcome in the data set with Plasmodium yoelii [15] was Active. For the same compound, the survival at 100 mg/kg in the data set on Plasmodium yoelii [19] was found to be 60%; with Plasmodium yoelii [20] it was 20%. For the same compound, the MST with Plasmodium yoelii [21] is 17 days. The compound also came in with a Vd in [22] of 4.97207 L/kg. The same compound displayed a t1/2 in [23] of 3.74 h. Further, the Cmax (commonly the peak of the concentration-time curve) in data set [24] is 15.17 ng/mL. Moreover, the Tmax – broadly, the time from dosing to the highest level – in data set [25] amounted to 4 h. For the same compound, the remaining at 2 h in data set [26], in [27] and in data set [28] was not below 60% throughout. The same compound came in with a CL in data set [29] of 15.324 mL/min/kg. Also, the area under the curve (AUC) (as a rule, concentration integrated over time) in data set [30] amounted to 112 µg·h/mL. In addition, in data set [31], the MRT (usually the average time that molecules of a dose stay in the body) was found to be 7.3 h.
